Each structure is given as a SMILES string. Read-outs that look alike come from different tables or passages of the source.

The test system of data set [1] is Influenza virus A/Puerto Rico/8/34 (PR8; H1N1). Briefly: organism not typed. The class given is cell-based. The conditions noted are these: for EC50: read-out: Antiviral activity (EC50) Flu A H1N1 PR8; for Selectivity index Flu A H1N1 PR8: MDCK cells.
Data set [2] deals with Influenza virus B/Lee/40 (Lee). Briefly: microbe, parasite or virus in culture. The class given is cell-based. As to conditions: for EC50: read-out: Antiviral activity (EC50) Flu B Lee; for Selectivity index Flu B Lee: MDCK cells.
The nature of data set [3]: in vitro. As to conditions: dog.
Data set [4] concerns Influenza virus A/Hong Kong/8/68 (HK: H3N2). The data set can be described thus: organism not typed. The class given is cell-based. As to conditions: for Selectivity index Flu A H3H2 Hong Kong: MDCK cells; for EC50: read-out: Antiviral activity (EC50) Flu A H3N2 Hong Kong.
The subject of another data set is Vero cells. The conditions noted are these: for CC50: read-out: CC50, cytotoxicity, 2 days.
In data set [5] the test system is SARS-COV-2 (BetaCoV/Korea/KCDC03/2020). Briefly: Image-based anti-SARS-COV-2 assay in Vero cells (anti-spike antibody). The class given is cell-based.
A short description of data set [6]: Cytotoxicity in mock-infected MDCK cells (MTT). As to conditions: dog, mock-infected MDCK cells.
A further data set concerns DENV-2 replicon. Briefly: microbe, parasite or virus in culture. The conditions noted are these: for S.I., Selectivity index = CC50/EC50: DENV-2, BHK-21 cells. The class given is cell-based.
Data set [7] can be described thus: in vitro. The conditions noted are these: for CC50: African green monkey.
Data set [8] deals with DENV-2 replicon BHK-21 (DENV2-BHK) cells. Briefly: MTT cytotoxicity assay in DENV-2 replicon BHK-21 cells. The conditions noted are these: for CC50: read-out: CC50, 50% cytotoxic concentration, BHK-21 cells, MTT. (Tetrazolium assays rely on reduction of a dye to a coloured formazan, in cell work by metabolically active cells.)
Test in data set [9]: as above
The conditions noted are these: hamster.

For the next data set, the system named is MDCK cells. The data set can be described thus: Cytotoxicity in mock-infected MDCK cells (MTT). The conditions noted are these: read-out: Toxicity (CC50); MDCK cells, 3 days.
The mark [10] stands for this setting: unidentified influenza virus, MDCK, 72 h.
Setting [11] is: Severe acute respiratory syndrome coronavirus 2, Vero, 48 h.
Where [12] appears, read: Dengue virus, DENV2, BHK-21, read-out: EC50, 50% effective concentration, anti-DENV-2 activity.
[13] abbreviates: read-out: EC50, 50% effective concentration, anti-DENV-2 activity, DENV-2 replicon BHK-21 cells, luciferase.

Turning to `NC12CC3CC(CC(C3)C1)C2` [AMT, Amantadine], the EC50 in data set [1] (MDCK, 72 h) is more than 100 µM; in data set [2] (setting [10]) it was more than 100 µM; in data set [4] (MDCK, 72 h) it was 6.4 µM. The compound further had a CC50 in “in vitro [3]” of more than 100 µM. Also, the “Selectivity index Flu A H3H2 Hong Kong” value in [4] is listed as more than 15.6.

For `CC(C)C(=O)ONc1ccn([C@@H]2O[C@H](CO)[C@@H](O)[C@H]2O)c(=O)n1` [Compound 5a, 1-((2R,3R,4S,5R)-3,4-Dihydroxy-5-(hydroxymethyl)tetrahydrofuran-2-yl)-4-((isobutyryloxy)amino)pyrimidin-2 (1H)-one], the “Cytotoxicity improved compared to the parent Compound 6” value with Vero cells (SARS-COV-2 test) is given as not below 6 times. In addition, in data set [1], the “Selectivity index Flu A H1N1 PR8” value is more than 17.2. The EC50 in data set [1] (MDCK, 72 h) was 5.8 µM; in data set [5] (setting [11]), 3.5 µM; in data set [2] (setting [10]) it was 3.4 µM; in data set [4] (MDCK, 72 h) it was 7.3 µM; in the data set on DENV-2 replicon (setting [12]), 3.95 µM. Further, in data set [5] (SARS-COV-2), the “Antiviral activity improved compared to the parent Compound 6” value is “about 5 times”. In addition, the “Antiviral activity improved over the other ester precursor 7” value in data set [5] (SARS-COV-2) is 3.5 fold. In addition, in [2], the “Selectivity index Flu B Lee” value is reported as more than 29.4. Besides, the “Selectivity index Flu A H3H2 Hong Kong” value in data set [4] is more than 13.7. The CC50 at 3 days in data set [6] is more than 100 µM. For the same compound, in the data set with DENV-2 replicon, the “S.I., Selectivity index = CC50/EC50” value turned out to be 2.74. The “EC50 value improved over the ester precursor 7” value in the data set on DENV-2 replicon (DENV-2 replicon) is reported as “about 6 fold”. Besides, in the data set on DENV-2 replicon (DENV-2 replicon), the “EC50 value increased compared to the parent Compound 6” value is given as “about 2 fold”. Besides, the values for the CC50 (in “in vitro [7]”; in [8]) were more than 100 µM and 10.8 µM, respectively. For the same compound, the CC50 at 2 days in the data set “in vitro [7]” (chlorocebus sabaeus) is more than 100 µM. Further, the “Cytotoxicity reduced compared to the parent Compound 6” value in data set [8] (DENV-2 replicon cells) is listed as 2 fold.

As for `O=c1nc(NCCO)ccn1[C@@H]1O[C@H](CO)[C@@H](O)[C@H]1O` [Compound 5b, 1-((2R,3R,4S,5R)-3,4-Dihydroxy-5-(hydroxymethyl)tetrahydrofuran-2-yl)-4-((2-hydroxyethyl)amino)pyrimidin-2 (1H)-one], the “Anti-Flu A/B activity (in words)” value in data set [1] (Flu A (H1N1, H3N2) and Flu B together) is “did not exhibit significant anti-Flu A/B activity”. Also, the EC50 in data set [1] (MDCK, 72 h) was more than 100 µM; in data set [5] (setting [11]) it was more than 100 µM; in [2] (setting [10]), more than 100 µM; in data set [4] (MDCK, 72 h), more than 100 µM; in the data set on DENV-2 replicon (setting [12]), more than 100 µM. Further, the “Biological SARS-COV-2 activity (in words)” value in data set [5] (Vero cells) is “did not show significant biological SARS-COV-2 activity”. The CC50 at 3 days in “in vitro [3]” is more than 100 µM. Further, the “Anti-DENV activity in replication assays (in words)” value in the data set with DENV-2 replicon (DENV-2 replicon) is on record as “did not exhibit significant anti-DENV activity”. Besides, the CC50 (in “in vitro [7]”; in [9]) was more than 100 µM each time.

Turning to `CCOC(=O)CNc1ccn([C@@H]2O[C@H](CO)[C@@H](O)[C@H]2O)c(=O)n1` [Compound 5c, Ethyl(1-((2R,3R,4S,5R)-3,4-dihydroxy-5-(hydroxymethyl)tetrahydrofuran-2-yl)-2-oxo-1,2-dihydropyrimidin-4-yl)glycinate], the CC50 (in the data set on Vero cells; in the data set on MDCK cells; in data set [8]) was more than 100 µM throughout. For the same compound, the EC50 (in data set [1]; in [5]; in [2]; in [4]; with DENV-2 replicon (setting [13])) was more than 100 µM throughout.

Take `CCOC(=O)[C@H](C)Nc1ccn([C@@H]2O[C@H](CO)[C@@H](O)[C@H]2O)c(=O)n1` [Compound 5d, Ethyl(1-((2R,3R,4S,5R)-3,4-dihydroxy-5-(hydroxymethyl)tetrahydrofuran-2-yl)-2-oxo-1,2-dihydropyrimidin-4-yl)-L-alaninate]: the CC50 (in the data set with Vero cells; in the data set on MDCK cells; in data set [8]) was more than 100 µM each time. The EC50 (in [1]; in data set [5]; in [2]; in data set [4]; in the data set on DENV-2 replicon (setting [13])) was more than 100 µM throughout.

Regarding `CCOC(=O)[C@H](CC(C)C)Nc1ccn([C@@H]2O[C@H](CO)[C@@H](O)[C@H]2O)c(=O)n1` [Compound 5e, Ethyl(1-((2R,3R,4S,5R)-3,4-dihydroxy-5-(hydroxymethyl)tetrahydrofuran-2-yl)-2-oxo-1,2-dihydropyrimidin-4-yl)-L-leucinate], the CC50 (in the data set with Vero cells; in the data set with MDCK cells; in data set [8]) was more than 100 µM in each case. In addition, the EC50 (in data set [1]; in [5]; in [2]; in data set [4]; in the data set with DENV-2 replicon (setting [13])) was more than 100 µM throughout.

`CCOC(=O)[C@H](Cc1ccccc1)Nc1ccn([C@@H]2O[C@H](CO)[C@@H](O)[C@H]2O)c(=O)n1` [Compound 5f, Ethyl(1-((2R,3R,4S,5R)-3,4-dihydroxy-5-(hydroxymethyl)tetrahydrofuran-2-yl)-2-oxo-1,2-dihydropyrimidin-4-yl)-L-phenylalaninate]: the CC50 (with Vero cells; with MDCK cells; in data set [8]) was more than 100 µM throughout. Besides, the EC50 (in [1]; in data set [5]; in data set [2]; in data set [4]; with DENV-2 replicon (setting [13])) was more than 100 µM in each case.

As to `O=c1nc(NO)ccn1[C@@H]1O[C@H](CO)C(O)[C@@H]1O` (stereo partly drawn) [Compound 6, β-D-N^4-hydroxycytidine, reference compound], in [1], the “Selectivity index Flu A H1N1 PR8” value was more than 58.8. Further, the EC50 in data set [1] (MDCK, 72 h) was 1.7 µM; in data set [5] (setting [11]), more than 16.5 µM; in [2] (setting [10]), less than 1.2 µM; in data set [4] (MDCK, 72 h), 2.3 µM; in the data set on DENV-2 replicon (setting [12]) it was 2.84 µM. The CC50 at 3 days in the data set “in vitro [3]” was more than 100 µM. Moreover, in [4], the “Selectivity index Flu A H3H2 Hong Kong” value is more than 43.5. Moreover, the “S.I., Selectivity index = CC50/EC50” value in the data set with DENV-2 replicon was found to be 2.02. In addition, the CC50 in the data set “in vitro [7]” was 16.5 µM; in data set [9], 5.75 µM.

As to `CC(C)C(=O)OC[C@H]1O[C@@H](n2ccc(NO)nc2=O)[C@@H](O)C1O` (stereo partly drawn) [Compound 7, reference compound], the “Selectivity index Flu A H1N1 PR8” value in data set [1] was more than 15.2. In addition, the EC50 was determined as 6.6 µM in [1] (MDCK, 72 h); 11.8 µM in data set [5] (setting [11]); 23.8 µM in [2] (setting [10]); 6 µM in data set [4] (MDCK, 72 h); 23.4 µM in the data set with DENV-2 replicon (setting [12]). Also, in data set [2], the “Selectivity index Flu B Lee” value is listed as more than 4.2. Besides, the “Selectivity index Flu A H3H2 Hong Kong” value in [4] is given as more than 16.7. For the same compound, in data set [6], the CC50 at 3 days was more than 100 µM. The “S.I., Selectivity index = CC50/EC50” value with DENV-2 replicon came out at 1.81. The values for the CC50 (in “in vitro [7]”; in [9]) were more than 100 µM and 42.2 µM, respectively.

Consider `NC(=O)c1nc(F)cnc1O` [Compound T-705, 6-fluoro-3-hydroxy-2-pyrazinecarboxamide, reference compound], for which the EC50 turned out to be 3.2 µM in data set [1] (MDCK, 72 h); 7.6 µM in data set [2] (setting [10]); 8.5 µM in data set [4] (MDCK, 72 h). For the same compound, in data set [2], the “Selectivity index Flu B Lee” value is on record as more than 13.2. In addition, the CC50 at 3 days in data set [6] is more than 100 µM.

Regarding `NC(=O)c1ncn([C@@H]2O[C@H](CO)[C@@H](O)[C@H]2O)n1` [RBV, Ribavirin, reference compound], the EC50 in data set [2] (setting [10]) is 33.3 µM; with DENV-2 replicon (setting [12]) it was 1.16 µM. In data set [8], the CC50 came out at 5.46 µM.

With `CCC(CC)COC(=O)[C@H](C)N[P@](=O)(OC[C@H]1O[C@@](C#N)(c2ccc3c(N)ncnn23)[C@H](O)[C@@H]1O)Oc1ccccc1` [Remdesivir, reference compound], the CC50 in “in vitro [7]” is more than 100 µM.
